Measurements reported in patent US9776972B2, “Pyrazole derivatives as arginine methyltransferase inhibitors and uses thereof” (priority 2013, dated 2017).

Assays:
human PRMT1 = target: T1, human PRMT1 (Homo sapiens, UniProt Q99873); assay: PRMT1 Biochemical Assay (3H-SAM Flashplate, peptide substrate); settings: single experiment or average of multiple experiments
T1 construct: GST-tagged PRMT1; made in house; host or cells: High Five insect cells (baculovirus)
In short: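 GST-tagged PRMT1 from baculovirus-infected cells, preincubated with compounds 30 min at room temperature in 20 mM Bicine pH 7.6, 1 mM TCEP, 0.005% BSG, 0.002% Tween 20. Reaction started with ³H-SAM plus biotinylated peptide, stopped with 300 µM cold SAM.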

human PRMT6 = target: T2, human PRMT6 (Homo sapiens, UniProt Q96LA8); assay: PRMT6 Biochemical Assay (3H-SAM Flashplate, peptide substrate); settings: Biochemical IC50 PRMT6, single experiment or average of multiple experiments
T2 construct: Flag-PRMT6-His; made in house; host or cells: HEK 293F cells (BacMam baculovirus)
In short: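 Flag-PRMT6-His, expressed in mammalian cells from a BacMam vector, was preincubated with compound for 30 min at room temperature in Bicine pH 7.6 buffer with TCEP, BSG and Tween 20. Reactions were started with ³H-SAM and a biotinylated histone H4 36-50 peptide, then stopped with cold SAM (400 uM final). Labeled peptide was captured on streptavidin Flashplates, counted, and fitted to a 3- or 4-parameter curve.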

T2 sequence (Q96LA8 with tags, fused parts or gaps): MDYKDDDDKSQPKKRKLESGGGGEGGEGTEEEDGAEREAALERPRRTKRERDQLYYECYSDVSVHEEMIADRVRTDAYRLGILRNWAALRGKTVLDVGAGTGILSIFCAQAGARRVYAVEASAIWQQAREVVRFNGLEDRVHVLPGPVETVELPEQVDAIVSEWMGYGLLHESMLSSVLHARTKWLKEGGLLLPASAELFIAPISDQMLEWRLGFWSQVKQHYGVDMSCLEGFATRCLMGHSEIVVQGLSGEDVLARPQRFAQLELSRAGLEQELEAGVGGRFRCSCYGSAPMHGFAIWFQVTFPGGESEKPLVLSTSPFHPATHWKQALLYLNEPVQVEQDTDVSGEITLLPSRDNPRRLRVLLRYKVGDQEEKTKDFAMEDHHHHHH
T1 sequence (Q99873 with tags, fused parts or gaps): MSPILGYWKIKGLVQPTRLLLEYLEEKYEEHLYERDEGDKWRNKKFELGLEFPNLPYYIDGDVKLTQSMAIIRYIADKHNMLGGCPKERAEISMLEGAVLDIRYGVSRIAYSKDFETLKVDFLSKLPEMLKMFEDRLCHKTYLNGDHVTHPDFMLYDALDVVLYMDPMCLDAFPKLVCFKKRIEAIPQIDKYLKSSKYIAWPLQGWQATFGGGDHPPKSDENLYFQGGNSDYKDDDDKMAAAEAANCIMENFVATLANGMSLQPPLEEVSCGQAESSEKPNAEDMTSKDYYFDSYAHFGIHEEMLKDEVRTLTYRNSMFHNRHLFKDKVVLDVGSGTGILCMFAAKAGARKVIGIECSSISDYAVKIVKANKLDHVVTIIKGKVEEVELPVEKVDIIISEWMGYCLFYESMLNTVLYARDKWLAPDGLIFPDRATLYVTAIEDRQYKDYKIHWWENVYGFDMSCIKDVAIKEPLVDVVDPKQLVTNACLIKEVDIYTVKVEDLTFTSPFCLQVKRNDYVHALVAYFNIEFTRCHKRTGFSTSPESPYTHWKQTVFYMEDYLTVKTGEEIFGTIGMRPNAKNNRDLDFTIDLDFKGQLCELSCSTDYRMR

Structure (SMILES)	IC50 (human PRMT1)	IC50 (human PRMT6)
CNCCN(C)Cc1cn(C2CC2)nc1-c1ccc(F)cc1 [Compound 13]	1500 nM	271 nM
CNCCN(C)Cc1cnn(C2CC2)c1-c1ccc(F)cc1 [Compound 14]	123 nM	27.7 nM
CNCCN(C)Cc1cn(C(C)C)nc1-c1ccc(F)cc1 [Compound 15]	4380 nM	526 nM
CNCCN(C)Cc1cnn(C(C)C)c1-c1ccc(F)cc1 [Compound 16]	2070 nM	57.9 nM
CNCCN(C)Cc1cn[nH]c1-c1ccc(C#N)cc1 [Compound 17]	13.8 nM	12.8 nM
CNCCN(C)Cc1cn[nH]c1-c1cc(F)cc(F)c1 [Compound 18]	36.2 nM	13.6 nM
CN(CCN)Cc1n[nH]cc1-c1ccc(C2CCOCC2)cc1 [Compound 145]	20.1 nM	60 nM
COc1ccc(-c2n[nH]cc2CN(C)CCN)c(Cl)c1 [Compound 146]	46.3 nM	12.5 nM
CN(CCN)Cc1c[nH]nc1-c1cc(C#N)ccc1Cl [Compound 147]	2860 nM	53.6 nM
CN(CCN)Cc1c[nH]nc1-c1ccc(C(F)(F)F)cc1F [Compound 148]	121 nM	68.2 nM
CN(CCN)Cc1c[nH]nc1-c1cccc(N(C)C)c1 [Compound 149]	61 nM	62.5 nM
CCOC(=O)c1cccc(-c2n[nH]cc2CN(C)CCN)c1 [Compound 150]	71.5 nM	29 nM
COc1cc(F)ccc1-c1n[nH]cc1CN(C)CCN [Compound 151]	122 nM	112 nM
Cc1cc(F)ccc1-c1n[nH]cc1CN(C)CCN [Compound 152]	47.2 nM	22.7 nM
COc1ccc(-c2n[nH]cc2CN(C)CCN)cc1 [Compound 153]	21.8 nM	11.6 nM
COc1ccc(-c2n[nH]cc2CN(C)CCN)c(C(F)(F)F)c1 [Compound 154]	660 nM	375 nM
COc1ccc(-c2n[nH]cc2CN(C)CCN)c(C)c1 [Compound 155]	59.9 nM	22.3 nM
CN(CCN)Cc1c[nH]nc1-c1cc(Cl)ccc1F [Compound 156]	243 nM	43.1 nM
COc1ccc(Cl)cc1-c1n[nH]cc1CN(C)CCN [Compound 157]	1540 nM	504 nM
Cc1ccc(C#N)cc1-c1n[nH]cc1CN(C)CCN [Compound 158]	2330 nM	115 nM
Cc1ccc(F)cc1-c1n[nH]cc1CN(C)CCN [Compound 159]	71.9 nM	27.3 nM
COc1ccc(F)cc1-c1n[nH]cc1CN(C)CCN [Compound 160]	167 nM	191 nM
Cc1ccccc1-c1n[nH]cc1CN(C)CCN [Compound 161]	187 nM	96.5 nM
Cc1ccc(-c2n[nH]cc2CN(C)CCN)cc1 [Compound 162]	17 nM	7.71 nM
CCN(C)C(=O)c1ccc(-c2n[nH]cc2CN(C)CCN)cc1 [Compound 163]	115 nM	62.6 nM

Structure (SMILES)	IC50 (human PRMT1)	IC50 (human PRMT6)
CC(C)CN(C)C(=O)c1ccc(-c2n[nH]cc2CN(C)CCN)cc1 [Compound 164]	107 nM	41.8 nM
CCOc1ccc(-c2n[nH]cc2CN(C)CCN)cc1 [Compound 166]	7.27 nM	15.6 nM
COCCOc1ccc(-c2n[nH]cc2CN(C)CCN)cc1 [Compound 167]	9.28 nM	17.4 nM
Cc1[nH]nc(-c2ccc(F)cc2)c1CN(C)CCN [Compound 169]	307 nM	85 nM
CC(C)Cc1ccc(-c2c[nH]nc2CN(C)CCN)cc1 [Compound 170]	11.4 nM	59.3 nM
NCCN(CCO)Cc1c[nH]nc1-c1ccc(F)cc1 [Compound 171]	929 nM	2420 nM
CN(CCN)Cc1c[nH]nc1-c1ccc(OCCN2CCOCC2)cc1 [Compound 172]	227 nM	26.4 nM
CN(CCN)Cc1c[nH]nc1-c1ccc2c(c1)NC(=O)CO2 [Compound 173]	167 nM	14.9 nM
CNCCN(C)Cc1c[nH]nc1-c1ccc(C(F)(F)F)cc1 [Compound 174]	11.9 nM	15 nM
CNCCN(C)Cc1c[nH]nc1-c1ccc(OC2CCOCC2)cc1 [Compound 175]	10.5 nM	12.5 nM
CC(C)Oc1ccc(-c2nn(C)cc2CN(C)CCN)cc1 [Compound 176]	11.6 nM	67.3 nM
CC(C)Oc1ccc(-c2c(CN(C)CCN)cnn2C)cc1 [Compound 177]	10 nM	34.2 nM
CN(CCN)Cc1c[nH]nc1-c1ccc(OC2CCOCC2)cc1 [Compound 178]	8.28 nM	7.22 nM
COCCCOc1ccc(-c2n[nH]cc2CN(C)CCN)cc1 [Compound 179]	17.3 nM	13.4 nM
CNCCN(C)Cc1c[nH]nc1-c1ccc(OC(C)C)c(F)c1 [Compound 181]	4.96 nM	17.3 nM
CNCCN(C)Cc1c[nH]nc1-c1ccc(Cl)c(F)c1 [Compound 182]	4.75 nM	5.48 nM
CN(CCN(C)C1CC1)Cc1c[nH]nc1-c1ccc(C#N)cc1 [Compound 184]	1600 nM	2380 nM
CN(CCN1CCC1)Cc1c[nH]nc1-c1ccc(C#N)cc1 [Compound 185]	1120 nM	407 nM
CC(C)Oc1cccc(-c2n[nH]cc2CN(C)CCN)c1 [Compound 187]	146 nM	77.6 nM
CC(C)Oc1cc(-c2n[nH]cc2CN(C)CCN)ccc1F [Compound 188]	163 nM	37.4 nM
CCC(=O)N1CCN(c2ccc(-c3n[nH]cc3CN(C)CCN)cc2)CC1 [Compound 189]	475 nM	29.5 nM
CC(C)CN1C(=O)COc2ccc(-c3n[nH]cc3CN(C)CCN)cc21 [Compound 191]	655 nM	435 nM
CN(CCN)Cc1c[nH]nc1-c1ccc2c(c1)OCC(=O)N2C [Compound 192]	121 nM	34.6 nM
CC(C)CN1C(=O)COc2cc(-c3n[nH]cc3CN(C)CCN)ccc21 [Compound 193]	63.4 nM	247 nM
CN(CCN)Cc1c[nH]nc1-c1ccc(OCCO)cc1 [Compound 194]	14.2 nM	15.3 nM

Structure (SMILES)	IC50 (human PRMT1)	IC50 (human PRMT6)
CN(CCN)Cc1c[nH]nc1-c1ccc(OCCCO)cc1 [Compound 195]	11.4 nM	9.24 nM
CN(CCN)Cc1c[nH]nc1-c1ccc2c(c1)N(C)C(=O)CO2 [Compound 196]	210 nM	28.7 nM
CCNC(=O)c1cccc(-c2n[nH]cc2CN(C)CCN)c1 [Compound 197]	678 nM	67.2 nM
CCN(C)C(=O)c1cccc(-c2n[nH]cc2CN(C)CCN)c1 [Compound 198]	2170 nM	322 nM
Cc1cc(-c2n[nH]cc2CN(C)CCN)cc(C)c1OC(C)C [Compound 199, N^1-((3-(4-isopropoxy-3,5-dimethylphenyl)-1H-pyrazol-4-yl)methyl)-N^1-methylethane-1,2-diamine]	15.1 nM	103 nM
CN(CCN)Cc1c[nH]nc1-c1ccc(Oc2ccccc2)c(C#N)c1 [Compound 202]	4.27 nM	2.9 nM
CN(CCN)Cc1n[nH]cc1-c1ccc(Oc2ccccc2)cc1 [Compound 203]	4.28 nM	2.42 nM
CNCCN(C)Cc1n[nH]cc1-c1ccc(Oc2ccccc2)cc1 [Compound 204]	3.15 nM	1.14 nM
CN(CCN)Cc1c[nH]nc1-c1ccc(Oc2cccc(F)c2)cc1 [Compound 205]	2.44 nM	1.53 nM
CNCCN(C)Cc1cn(C)nc1-c1ccc(OC(C)C)c(Cl)c1 [Compound 206]	7.07 nM	21.4 nM
CNCCN(C)Cc1cn(C)nc1-c1ccc(Oc2ccccc2)cc1 [Compound 207]	6.16 nM	3.3 nM
CNCCN(C)Cc1cnn(C)c1-c1ccc(Oc2ccccc2)cc1 [Compound 208]	4.16 nM	2.93 nM
CNCCN(C)Cc1c[nH]nc1-c1ccc(OCCCOC)cc1 [Compound 209]	5.29 nM	4.05 nM
CNCCN(C)Cc1n[nH]cc1-c1ccc(OC(C)C)c(F)c1 [Compound 210]	8.79 nM	16.1 nM
CC(C)Oc1ccc(-c2c[nH]nc2CN(C)CCN)cc1Cl [Compound 211]	6.08 nM	20.5 nM
CNCCN(C)Cc1n[nH]cc1-c1ccc(OC(C)C)c(Cl)c1 [Compound 212]	6.46 nM	9.07 nM
CCn1cc(CN(C)CCNC)c(-c2ccc(OC(C)C)cc2)n1 [Compound 213]	26.6 nM	82.1 nM
CNCCN(C)Cc1cn(C2CCCC2)nc1-c1ccc(OC(C)C)cc1 [Compound 214]	51.9 nM	124 nM
CNCCN(C)Cc1cn(C2CCOC2)nc1-c1ccc(OC(C)C)cc1 (centres unmarked) [Compound 215]	82.2 nM	323 nM
CNCCN(C)Cc1cnn(C2CCOC2)c1-c1ccc(OC(C)C)cc1 (centres unmarked) [Compound 216]	21.1 nM	27.7 nM
CNCCN(C)Cc1cn(Cc2ccccc2)nc1-c1ccc(OC(C)C)cc1 [Compound 217]	18.7 nM	42.1 nM
C=CCn1cc(CN(C)CCNC)c(-c2ccc(OC(C)C)cc2)n1 [Compound 218]	58.4 nM	132 nM
C=CCn1ncc(CN(C)CCNC)c1-c1ccc(OC(C)C)cc1 [Compound 219]	18.4 nM	30.8 nM
